Experiments:
oat, wild = experiment: Test C pre-/postemergence herbicide test; assay type: in vivo, Avena fatua
Procedure, shortened: (§1)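 Test compounds, formulated in a surfactant-containing non-phytotoxic solvent blend, are applied to seeded loam/sand soil (preemergence) and to young plants at the 1- to 4-leaf stage in peat-based medium (postemergence). Plants stay 13 to 15 days under greenhouse conditions, then are scored visually relative to controls, 0 = no effect, 100 = complete control.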

foxtail, giant = experiment: Test C pre-/postemergence herbicide test; assay type: in vivo, Setaria faberii
Procedure, shortened: as §1

morningglory = experiment: Test C pre-/postemergence herbicide test; assay type: in vivo, Ipomoea coccinea; conditions: for Morningglory plant response rating: scale 0 to 100, 0 is no effect and 100 is complete control
Procedure, shortened: as §1

galium = experiment: Test C pre-/postemergence herbicide test; assay type: in vivo, Galium aparine
Procedure, shortened: as §1

pigweed = experiment: Test A pre-/postemergence herbicide test; assay type: in vivo, Amaranthus retroflexus
Procedure, shortened: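 Planted in loam–sand blend; treated the same day preemergence by directed soil spray, while separately grown plants at one- to two-leaf stage got postemergence spray. Compared visually with untreated controls after approximately 10 days; 100 means complete control.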

kochia = experiment: Test C pre-/postemergence herbicide test; assay type: in vivo, Kochia scoparia
Procedure, shortened: as §1

[1] = Preemergence, 62 g ai/ha, scale 0 to 100
[2] = Preemergence, 125 g ai/ha, scale 0 to 100 (0 no effect, 100 complete control)
[3] = Preemergence, 31 g ai/ha, scale 0 to 100 (0 no effect, 100 complete control)
[4] = Preemergence, 250 g ai/ha, scale 0 to 100 (0 no effect, 100 complete control)
[5] = Postemergence, 31 g ai/ha, scale 0 (no effect) to 100 (complete control)
[6] = Postemergence, 62 g ai/ha, scale 0 to 100 (0 no effect, 100 complete control)
[7] = Postemergence, 125 g ai/ha, scale 0 to 100 (0 no effect, 100 complete control)
[8] = Postemergence, 250 g ai/ha, scale 0 to 100 (0 no effect, 100 complete control)
[9] = Preemergence, 31 g ai/ha, scale 0 to 100, 0 is no effect and 100 is complete control
[10] = Postemergence, 125 g ai/ha, 0 to 100 scale, 0 no effect, 100 complete control
[11] = Postemergence, 500 g ai/ha, 0 to 100 scale (0 no effect, 100 complete control)
[12] = Preemergence, 125 g ai/ha, visual rating on 0 to 100 scale (0 no effect, 100 complete control)
[13] = preemergence, 500 g ai/ha, 0 to 100 scale

SMILES: Cc1ccccc1NC(=O)C1C(=O)NCC1c1cc(F)c(F)c(F)c1 (racemic) [Compound 35]
- Plant response rating, Oat, Wild (oat, wild; [1]): 0
- Plant response rating, Oat, Wild (oat, wild; [2]): 0
- Foxtail, Giant plant response rating (foxtail, giant; [3]): 80
- Plant response rating, Foxtail, Giant (foxtail, giant; [1]): 90
- Plant response rating, Foxtail, Giant (foxtail, giant; [2]): 98
- Plant response rating, Foxtail, Giant (foxtail, giant; [4]): 98
- Plant response rating, Morningglory (morningglory; [1]): 10
- Plant response rating, Morningglory (morningglory; [2]): 10
- Galium plant response rating (galium; [3]): 0
- Plant response rating, Galium (galium; [1]): 0
- Plant response rating, Galium (galium; [2]): 5
- Plant response rating, Galium (galium; [4]): 30
- Plant response rating, Pigweed (pigweed; Postemergence, 1000 g ai/ha, 0 to 100 scale (0 no effect, 100 complete control)): 0
- Plant response rating, Pigweed (pigweed; Preemergence, 1000 g ai/ha, visual rating on 0 to 100 scale (0 no effect, 100 complete control), approx. 10 days): 0
- Plant response rating, Kochia (kochia; [1]): 0
- Plant response rating, Kochia (kochia; [2]): 5

SMILES: O=C1NCC(c2ccc(F)c(C(F)(F)F)c2)C1C(=O)Nc1ccccc1F (racemic) [Compound 76]
- Plant response rating, Oat, Wild (oat, wild; [5]): 0
- Plant response rating, Oat, Wild (oat, wild; [6]): 0
- Plant response rating, Oat, Wild (oat, wild; [7]): 0
- Plant response rating, Oat, Wild (oat, wild; [8]): 0
- Plant response rating, Foxtail, Giant (foxtail, giant; [5]): 0
- Plant response rating, Foxtail, Giant (foxtail, giant; [6]): 5
- Plant response rating, Foxtail, Giant (foxtail, giant; [7]): 20
- Plant response rating, Foxtail, Giant (foxtail, giant; [8]): 70
- Foxtail, Giant plant response rating (foxtail, giant; [9]): 90
- Plant response rating, Foxtail, Giant (foxtail, giant; [1]): 95
- Plant response rating, Foxtail, Giant (foxtail, giant; [2]): 95
- Plant response rating (scale of 0 to 100), Foxtail, Giant (foxtail, giant; Preemergence, 250 g ai/ha): 98
- Plant response rating, Morningglory (morningglory; [5]): 10
- Plant response rating, Morningglory (morningglory; [6]): 10
- Plant response rating, Morningglory (morningglory; [7]): 40
- Plant response rating, Morningglory (morningglory; [8]): 40
- Morningglory plant response rating (morningglory; Preemergence, 31 g ai/ha): 0
- Plant response rating, Morningglory (morningglory; [1]): 0
- Plant response rating, Morningglory (morningglory; [2]): 40
- Plant response rating (scale of 0 to 100), Morningglory (morningglory; Preemergence, 250 g ai/ha): 40
- Plant response rating, Galium (galium; [5]): 30
- Plant response rating, Galium (galium; [6]): 50
- Plant response rating, Galium (galium; [7]): 50
- Plant response rating, Galium (galium; [8]): 65
- Galium plant response rating (galium; [9]): 5
- Plant response rating (scale of 0 to 100), Galium (galium; Preemergence, 250 g ai/ha): 85
- Plant response rating, Pigweed (pigweed; [10]): 50
- Plant response rating, Pigweed (pigweed; [11]): 60
- Pigweed plant response rating (pigweed; [12]): 0
- Plant response rating, Pigweed (pigweed; [13]): 50
- Plant response rating, Kochia (kochia; [5]): 40
- Plant response rating, Kochia (kochia; [6]): 50
- Plant response rating, Kochia (kochia; [7]): 50
- Plant response rating, Kochia (kochia; [8]): 65

SMILES: O=C1NCC(c2ccccc2)C1C(=O)Nc1ccccc1F (racemic) [Compound 81]
- Plant response rating, Oat, Wild (oat, wild; [5]): 0
- Plant response rating, Oat, Wild (oat, wild; [6]): 0
- Plant response rating, Oat, Wild (oat, wild; [7]): 0
- Plant response rating, Oat, Wild (oat, wild; [8]): 0
- Oat, Wild plant response rating (oat, wild; [9]): 0
- Plant response rating, Oat, Wild (oat, wild; [1]): 0
- Plant response rating, Oat, Wild (oat, wild; [2]): 0
- Plant response rating (scale of 0 to 100), Oat, Wild (oat, wild; Preemergence, 250 g ai/ha): 0
- Plant response rating, Foxtail, Giant (foxtail, giant; [5]): 0
- Plant response rating, Foxtail, Giant (foxtail, giant; [6]): 0
- Plant response rating, Foxtail, Giant (foxtail, giant; [7]): 0
- Plant response rating, Foxtail, Giant (foxtail, giant; [8]): 7
- Foxtail, Giant plant response rating (foxtail, giant; [9]): 0
- Plant response rating, Foxtail, Giant (foxtail, giant; [1]): 17
- Plant response rating, Foxtail, Giant (foxtail, giant; [2]): 37
- Plant response rating (scale of 0 to 100), Foxtail, Giant (foxtail, giant; Preemergence, 250 g ai/ha): 73
- Plant response rating, Morningglory (morningglory; [5]): 0
- Plant response rating, Morningglory (morningglory; [6]): 0
- Plant response rating, Morningglory (morningglory; [7]): 0
- Plant response rating, Morningglory (morningglory; [8]): 0
- Morningglory plant response rating (morningglory; Preemergence, 31 g ai/ha): 0
- Plant response rating, Morningglory (morningglory; [1]): 0
- Plant response rating, Morningglory (morningglory; [2]): 0
- Plant response rating (scale of 0 to 100), Morningglory (morningglory; Preemergence, 250 g ai/ha): 0
- Galium plant response rating (galium; [9]): 0
- Plant response rating, Galium (galium; [1]): 0
- Plant response rating, Galium (galium; [2]): 0
- Plant response rating (scale of 0 to 100), Galium (galium; Preemergence, 250 g ai/ha): 0
- Plant response rating, Pigweed (pigweed; [10]): 0
- Plant response rating, Pigweed (pigweed; [11]): 0
- Pigweed plant response rating (pigweed; [12]): 0
- Plant response rating, Pigweed (pigweed; [13]): 0
- Plant response rating, Kochia (kochia; [5]): 0
- Plant response rating, Kochia (kochia; [6]): 0
- Plant response rating, Kochia (kochia; [7]): 0
- Plant response rating, Kochia (kochia; [8]): 0

SMILES: O=C1NCC(c2ccc(Cl)c(F)c2)C1C(=O)Nc1ccccc1F (centres unmarked) [Compound 53]
- Plant response rating, Oat, Wild (oat, wild; [1]): 0
- Plant response rating, Oat, Wild (oat, wild; [2]): 0
- Foxtail, Giant plant response rating (foxtail, giant; [3]): 40
- Plant response rating, Foxtail, Giant (foxtail, giant; [1]): 65
- Plant response rating, Foxtail, Giant (foxtail, giant; [2]): 65
- Plant response rating, Foxtail, Giant (foxtail, giant; [4]): 85
- Plant response rating, Morningglory (morningglory; [1]): 0
- Plant response rating, Morningglory (morningglory; [2]): 0
- Galium plant response rating (galium; [3]): 0
- Plant response rating, Galium (galium; [1]): 0
- Plant response rating, Galium (galium; [2]): 0
- Plant response rating, Galium (galium; [4]): 70
- Plant response rating, Pigweed (pigweed; [10]): 0
- Plant response rating, Pigweed (pigweed; [11]): 0
- Pigweed plant response rating (pigweed; [12]): 0
- Plant response rating, Pigweed (pigweed; [13]): 0
- Plant response rating, Kochia (kochia; [1]): 0
- Plant response rating, Kochia (kochia; [2]): 0

SMILES: O=C1NCC(c2ccc(F)c(Cl)c2)C1C(=O)Nc1cccc(F)c1F (centres unmarked) [Compound 59]
- Plant response rating, Oat, Wild (oat, wild; [1]): 0
- Plant response rating, Oat, Wild (oat, wild; [2]): 0
- Foxtail, Giant plant response rating (foxtail, giant; [3]): 50
- Plant response rating, Foxtail, Giant (foxtail, giant; [1]): 85
- Plant response rating, Foxtail, Giant (foxtail, giant; [2]): 85
- Plant response rating, Foxtail, Giant (foxtail, giant; [4]): 90
- Plant response rating, Morningglory (morningglory; [1]): 0
- Plant response rating, Morningglory (morningglory; [2]): 15
- Galium plant response rating (galium; [3]): 0
- Plant response rating, Galium (galium; [1]): 5
- Plant response rating, Galium (galium; [2]): 30
- Plant response rating, Galium (galium; [4]): 85
- Plant response rating, Pigweed (pigweed; [10]): 0
- Plant response rating, Pigweed (pigweed; [11]): 40
- Pigweed plant response rating (pigweed; [12]): 0
- Plant response rating, Pigweed (pigweed; [13]): 0
- Plant response rating, Kochia (kochia; [1]): 0
- Plant response rating, Kochia (kochia; [2]): 10

From patent US10294202B2, “Pyrrolidinones as herbicides” (FMC Corporation, priority 2013, dated 2019)
